Measurements from patent EP2292225A1 (priority 1997, dated 1998).

Tested on: Vascular smooth muscle (BO54) cells
Assay type: cell-based, baboon

In the case of `C=C1[C@@H](C)[C@H]2[C@H](Cc3ccccc3)NC(=O)[C@]23OC(=O)/C=C/[C@H](O)CCC[C@@H](C)C/C=C/[C@H]3[C@@H]1O` [cytochalasin B], the “minimum effective dose (MED), DNA assay” value (5 minute exposure) is reported as 10 µg/mL, the “therapeutic range (area under the curve of ^3H-leucine assay greater than ^3H-thymidine assay)” value (24 hour assays, 5% FBS) is reported as “available therapeutic range” and the “minimum effective dose (MED), DNA synthesis assay” value (24 hour exposure) is reported as 0.1 µg/mL.
